US11396495B2, “Amine compound for inhibiting SSAO/VAP-1 and use thereof” (SUNSHINE LAKE PHARMA CO., LTD., priority 2017, dated 2022)
Where a name gives a salt, the structure may show the parent alone.

What was measured:
[1] = target: rat adipose tissue homogenate SSAO/VAP-1 (Rattus norvegicus (Rat), UniProt O08590); test: Determination of inhibitory activity of rat adipose tissue homogenate SSAO/VAP-1; type: biochemical, Sprague Dawley rats; settings: rat abdominal adipose tissue homogenate, pargyline pretreated, 37° C.
Sequence of rat adipose tissue homogenate SSAO/VAP-1 (O08590 whole entry): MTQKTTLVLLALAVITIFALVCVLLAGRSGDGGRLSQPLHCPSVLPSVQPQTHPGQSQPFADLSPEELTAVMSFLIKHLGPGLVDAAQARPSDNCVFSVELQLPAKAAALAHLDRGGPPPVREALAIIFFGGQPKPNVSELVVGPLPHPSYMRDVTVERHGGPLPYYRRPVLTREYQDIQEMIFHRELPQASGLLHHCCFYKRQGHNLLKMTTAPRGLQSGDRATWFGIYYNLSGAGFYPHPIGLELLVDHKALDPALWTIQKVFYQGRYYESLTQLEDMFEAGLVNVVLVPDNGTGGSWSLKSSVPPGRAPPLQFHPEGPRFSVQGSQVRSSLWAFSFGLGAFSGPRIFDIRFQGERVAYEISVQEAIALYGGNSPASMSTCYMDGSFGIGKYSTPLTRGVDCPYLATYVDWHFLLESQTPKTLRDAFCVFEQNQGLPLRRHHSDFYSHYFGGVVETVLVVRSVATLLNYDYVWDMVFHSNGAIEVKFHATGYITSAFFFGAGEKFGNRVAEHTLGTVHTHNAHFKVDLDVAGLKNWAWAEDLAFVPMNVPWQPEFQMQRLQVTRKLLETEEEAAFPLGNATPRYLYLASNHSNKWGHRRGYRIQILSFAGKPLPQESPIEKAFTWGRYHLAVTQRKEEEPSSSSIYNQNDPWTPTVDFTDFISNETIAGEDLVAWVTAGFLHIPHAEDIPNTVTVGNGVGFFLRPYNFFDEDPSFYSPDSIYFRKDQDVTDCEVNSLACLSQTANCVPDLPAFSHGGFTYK
Method: 2. Determination of Inhibitory Activity of Rat Adipose Tissue Homogenate SSAO/VAP-1
Test purpose: The following methods can be used to determine the inhibitory activity of the compounds of the invention for rat adipose tissue homogenate SSAO/VAP-1.
The abdominal fat removed from Sprague Dawley rats was a tissue rich in SSAO/VAP-1. 5 mL Of HES buffer per gram of rat abdominal adipose tissue (20 mM Sodium N-piperazine-N-ethanesulfonate, 1 mm EDTA, 250 mM sucrose, 1×PMSF and 100 mM (3-glycerol phosphate disodium salt hydrate, pH 7.4) was added for homogenizing. The fat tissue was homogenized for 3 min by using Bertin precellys 24 multi-functional sample homogenizer of Bertin technologies, and the fat tissue homogenate was centrifuged for 10 min at 4° C. and 20000 g, and the middle transparent supernatant was taken. The supernatant was incubated with 0.5 mm Pargyline hydrochloride dissolved in HES buffer at 37° C. for 30 min. After 30 min incubation, 25 μl of fat tissue supernatant was added to the standard 96 well plate. The test compound was dissolved in DMSO and diluted to 6 concentrations. 25 μL Of the test compounds with different concentrations was added to each well containing the supernatant of fat tissue and incubated at 37° C. for 30 min. After incubation, 50 μL of the reaction mixture containing 80 μM benzylamine hydrochloride (containing 100 μM Amplex® red and 0.2 U/mL HRP, Amplex® Red Hydrogen peroxideperoxidase assay kit) was added to the corresponding wells and incubated at 37° C. for 30 min. After 30 min, the relative fluorescence unit (RFU) was read by using PHERAstar FSX enzyme marker of BMG LABTECH at 540 nm excitation and 580 nm emission. The curve was drawn by using the graph pad prism 5 software, and the IC50 value was calculated. The results were shown in table 2, wherein the compound listed in table 2 is the compound in the preparation examples with the same compound number: Table 2: inhibitory activity of the compound of examples of the invention for SSAO/VAP-1 of fat tissue homogenate

[2] = target: Human recombinant SSAO/VAP-1 (Homo sapiens (Human), UniProt Q16853); test: Determination of inhibitory activity of human recombinant SSAO/VAP-1 (Amplex Red, benzylamine); type: biochemical; settings: human recombinant SSAO/VAP-1, 30 min preincubation at room temperature; read-out: SSAO/VAP-1(Human recombinant protein) IC50/nM
Sequence of Human recombinant SSAO/VAP-1 (Q16853 whole entry): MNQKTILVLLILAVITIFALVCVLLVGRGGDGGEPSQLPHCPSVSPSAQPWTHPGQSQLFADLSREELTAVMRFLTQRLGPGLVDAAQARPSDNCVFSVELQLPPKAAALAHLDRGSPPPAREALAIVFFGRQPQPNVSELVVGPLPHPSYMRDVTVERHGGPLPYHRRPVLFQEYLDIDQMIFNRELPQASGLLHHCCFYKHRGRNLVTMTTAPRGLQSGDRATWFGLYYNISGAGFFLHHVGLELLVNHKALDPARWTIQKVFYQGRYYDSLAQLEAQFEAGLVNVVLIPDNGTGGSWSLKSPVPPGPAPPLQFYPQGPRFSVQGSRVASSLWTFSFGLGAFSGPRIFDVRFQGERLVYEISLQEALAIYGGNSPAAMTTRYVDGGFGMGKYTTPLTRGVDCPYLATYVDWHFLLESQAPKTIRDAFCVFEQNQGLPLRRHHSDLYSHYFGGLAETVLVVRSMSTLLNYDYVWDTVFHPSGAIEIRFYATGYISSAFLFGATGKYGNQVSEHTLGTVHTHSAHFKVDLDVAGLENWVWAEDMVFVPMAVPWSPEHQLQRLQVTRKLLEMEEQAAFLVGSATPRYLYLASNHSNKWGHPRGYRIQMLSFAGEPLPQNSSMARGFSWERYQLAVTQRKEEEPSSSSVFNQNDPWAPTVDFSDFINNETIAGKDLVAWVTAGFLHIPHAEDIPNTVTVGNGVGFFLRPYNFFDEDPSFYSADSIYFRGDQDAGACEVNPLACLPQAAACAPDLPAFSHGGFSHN
Method: 1. Determination of Inhibitory Activity of Human Recombinant SSAO/VAP-1
Test purpose: The following methods can be used to determine the inhibitory activity of the compounds described in the examples of the invention for human recombinant SSAO/VAP-1.
Human recombinant SSAO/VAP-1 (VAP-1, human) purchased from Sigma, Cat. No. SRP6241;
The test compound was dissolved in DMSO and diluted to 10 concentrations in 4-fold serial dilution. In 384 well plates, 25 μL of human recombinant SSAO/VAP-1 (1.6 μg/ml) was added to each well. 100 nL of test compounds with different concentrations were added to each well containing human recombinant SSAO/VAP-1 and incubated at room temperature for 30 min. After 30 min incubation, 25 μl of Amplex® red monoamine oxidase assay kit (containing a reaction mixture of 200 μm Amplex Red reagent, 1 U/ml HRP and 1 mm benzylamine hydrochloride) was added to the corresponding well, and incubated at room temperature and dark for 60 min. After 60 min, the relative fluorescence unit (RFU) was read by using PerkinElmer's Envision at 530-560 nm excitation and 590 nm emission. The curve was drawn by using the graph pad prism 5 software, and the IC50 value was calculated. The results were shown in table 1, wherein the compound listed in table 1 is the compound in the preparation examples with the same compound number: […]

Row | SMILES | IC50 [1] [nM] | IC50 [2] [nM]
1 | NC/C(=C\F)COc1ccc2c(c1)NC(=O)CC2 [Compound 1, 7-[(E)-2-(aminomethyl)-3-fluoro-allyloxy]-3,4-dihydro-1H-quinolin-2-one hydrochloride] | 10.1 | 
2 | NC/C(=C/F)COc1ccc2c(c1)NC(=O)CC2 [Compound 2, 7-[(Z)-2-(aminomethyl)-3-fluoro-allyloxy]-3,4-dihydro-1H-quinolin-2-one hydrochloride] | 11.6 | 1.01
3 | NC/C(=C\F)COc1ccc2c(c1)CCN(CC1CCOCC1)C2=O [Compound 10, 6-[(E)-2-(aminomethyl)-3-fluoro-allyloxy]-2-(tetrahydropyranyl-4-methylene)-3,4-dihydroisoquinolin-1-one hydrochloride] | 9.54 | 
4 | NC/C(=C/F)COc1ccc2c(c1)CCN(CC1CCOCC1)C2=O [Compound 11, 6-[(Z)-2-(aminomethyl)-3-fluoro-allyloxy]-2-(tetrahydropyranyl-4-methylene)-3,4-dihydroisoquinolin-1-one hydrochloride] | 11.7 | 0.82
5 | NC/C(=C/F)COc1ccc2c(c1)CCN(CCOCc1ccccc1)C2=O [Compound 21, 6-[(Z)-2-(aminomethyl)-3-fluoro-allyloxy]-2-(2-benzyloxyethyl)-3,4-dihydro isoquinolin-1-one hydrochloride] |  | 0.91
6 | NC/C(=C\F)COc1ccc2c(c1)CCN(c1ccccn1)C2=O [Compound 28, 6-[(E)-2-(aminomethyl)-3-fluoro-allyloxy]-2-(2-pyridyl)-3,4-dihydroisoquinolin-1-one hydrochloride] |  | 1.53
7 | NC/C(=C\F)COc1ccc2c(c1)CCNS2(=O)=O [Compound 32, (E)-2-[(1,1-dioxo-3,4-dihydro-2H-benzo[e][1,2]thiazin-6-yl)oxymethyl]-3-fluoro-prop-2-enyl-1-amine hydrochloride] | 6.22 | 
8 | NC/C(=C\F)COc1ccc2c(c1)CCN(c1ccccc1F)C2=O [Compound 34, 6-[(E)-2-(aminomethyl)-3-fluoro-allyloxy]-2-(2-fluorophenyl)-3,4-dihydroisoquinolin-1-one hydrochloride] |  | 1.16
9 | NC/C(=C/F)COc1ccc2c(c1)CCN(c1ccccc1F)C2=O [Compound 35, 6-[(Z)-2-(aminomethyl)-3-fluoro-allyloxy]-2-(2-fluorophenyl)-3,4-dihydroisoquinolin-1-one hydrochloride] |  | 0.71
10 | NC/C(=C\F)COc1ccc2c(c1)CCN(c1nccs1)C2=O [Compound 40, 6-[(E)-2-(aminomethyl)-3-fluoro-allyloxy]-2-thiazol-2-yl-3,4-dihydroisoquinolin-1-one hydrochloride] |  | 1
11 | NC/C(=C\F)COc1ccc2c(c1)CCN(Cc1ccon1)C2=O [Compound 42, 6-[(E)-2-(aminomethyl)-3-fluoro-allyloxy]-2-(isoxazol-3-yl-methyl)-3,4-dihydroisoquinolin-1-one hydrochloride] |  | 1.13
12 | NC/C(=C/F)COc1ccc2c(c1)CCN(Cc1ccon1)C2=O [Compound 43, 6-[(Z)-2-(aminomethyl)-3-fluoro-allyloxy]-2-(isoxazol-3-yl-methyl)-3,4-dihydroisoquinolin-1-one hydrochloride] |  | 0.71
13 | NC/C(=C/F)COc1ccc2c(c1)CCN(c1ccccc1)C2 [Compound 53, (Z)-3-fluoro-2-[(2-phenyl-3,4-dihydro-1H-isoquinolin-6-yl)oxymethyl]prop-2-enyl-1-amine hydrochloride] |  | 1.04
14 | COc1ncc(N2CCc3cc(OC/C(=C\F)CN)ccc3C2=O)cn1 [Compound 55, 6-[(Z)-2-[(aminomethyl)-3-fluoro-allyloxy]-2-(2-methoxypyrimidin-5-yl)-3,4-dihydroisoquinolin-1-one hydrochloride] |  | 0.82
15 | COC(=O)CCN1CCc2cc(OC/C(=C/F)CN)ccc2C1=O [Compound 56, methyl 3-[6-[(E)-2-(aminomethyl)-3-fluoro-allyloxy]-1-oxo-3,4-dihydroisoquinolin-2-yl]propionate hydrochloride] |  | 1.91
16 | COC(=O)CCN1CCc2cc(OC/C(=C\F)CN)ccc2C1=O [Compound 57, methyl 3-[6-[(Z)-2-(aminomethyl)-3-fluoro-allyloxy]-1-oxo-3,4-dihydroisoquinolin-2-yl]propionate hydrochloride] |  | 1.27
17 | COC(=O)CN1CCc2cc(OC/C(=C/F)CN)ccc2C1=O [Compound 58, methyl 2-[6-[(E)-2-(aminomethyl)-3-fluoro-allyloxy]-1-oxo-3,4-dihydroisoquinolin-2-yl]acetate hydrochloride] |  | 1.17
18 | COC(=O)CN1CCc2cc(OC/C(=C\F)CN)ccc2C1=O [Compound 59, methyl 2-[6-[(Z)-2-(aminomethyl)-3-fluoro-allyloxy]-1-oxo-3,4-dihydroisoquinolin-2-yl]acetate hydrochloride] |  | 1.3

Next, values leading:

Row | IC50 [1] [nM] | IC50 [2] [nM] | SMILES
19 | 4.87 | 0.37 | NC/C(=C\F)COc1ccc2c(c1)CCN(c1ccccc1)C2=O [Compound 5, 6-[(E)-2-(aminomethyl)-3-fluoro-allyloxy]-2-phenyl-3,4-dihydroisoquinolin-1-one hydrochloride]
20 |  | 0.04 | NC/C(=C/F)COc1ccc2c(c1)CCN(c1ccccc1)C2=O [Compound 6, 6-[(Z)-2-(aminomethyl)-3-fluoro-allyloxy]-2-phenyl-3,4-dihydroisoquinolin-1-one hydrochloride]
21 | 8.98 | 0.09 | NC/C(=C\F)COc1ccc2c(c1)CCN(c1ncccn1)C2=O [Compound 7, 6-[(E)-2-(aminomethyl)-3-fluoro-allyloxy]-2-(pyrimidin-2-yl)-3,4-dihydroisoquinolin-1-one hydrochloride]
22 | 8.84 | 0.32 | CN1CCc2cc(OC/C(=C/F)CN)ccc2C1=O [Compound 8, 6-[(E)-2-(aminomethyl)-3-fluoro-allyloxy]-2-methyl-3,4-dihydroisoquinolin-1-one hydrochloride]
23 | 8.05 | 0.61 | CN1CCc2cc(OC/C(=C\F)CN)ccc2C1=O [Compound 9, 6-[(Z)-2-(aminomethyl)-3-fluoro-allyloxy]-2-methyl-3,4-dihydroisoquinolin-1-one hydrochloride]
24 | 8.03 | 0.11 | CCOC(=O)CN1CCc2cc(OC/C(=C\F)CN)ccc2C1=O [Compound 13, ethyl 2-[6-[(Z)-2-(aminomethyl)-3-fluoro-allyloxy]-1-oxo-3,4-dihydroisoquinolin-2-yl]acetate hydrochloride]
25 | 6.01 | 0.22 | NC/C(=C\F)COc1ccc2c(c1)CCN(C1CCOCC1)C2=O [Compound 16, 6-[(E)-2-(aminomethyl)-3-fluoro-allyloxy]-2-(tetrahydropyran-4-yl)-3,4-dihydroisoquinolin-1-one hydrochloride]
26 | 5.03 | 0.58 | NC/C(=C/F)COc1ccc2c(c1)CCN(C1CCOCC1)C2=O [Compound 17, 6-[(Z)-2-(aminomethyl)-3-fluoro-allyloxy]-2-(tetrahydropyran-4-yl)-3,4-dihydroisoquinolin-1-one hydrochloride]
27 |  | 0.68 | N#Cc1ccc(N2CCc3cc(OC/C(=C/F)CN)ccc3C2=O)cc1 [Compound 38, 4-[6-[(E)-2-(aminomethyl)-3-fluoro-allyloxy]-1-oxo-3,4-dihydroisoquinolin-2-yl]benzonitrile hydrochloride]
28 |  | 0.53 | N#Cc1ccc(N2CCc3cc(OC/C(=C\F)CN)ccc3C2=O)cc1 [Compound 39, 4-[6-[(Z)-2-(aminomethyl)-3-fluoro-allyloxy]-1-oxo-3,4-dihydroisoquinolin-2-yl]benzonitrile hydrochloride]
29 |  | 0.63 | NC/C(=C/F)COc1ccc2c(c1)CCN(c1nccs1)C2=O [Compound 41, 6-[(Z)-2-(aminomethyl)-3-fluoro-allyloxy]-2-thiazol-2-yl-3,4-dihydroisoquinolin-1-one hydrochloride]
